Patent US20080139554A1, “SPIRO-PIPERIDINE DERIVATIVES” (priority 2006, published 2008)

Molecular target: T1, human V1a receptor (Homo sapiens, UniProt P37288)
T1 construct: expressed in transfected cells; host or cells: HEK293 cells, transiently transfected; cell membranes
Assay: human V1a receptor binding (3H-Vasopressin SPA)
Settings: displacement of 3H-Vasopressin; membranes of HEK293 cells transiently transfected with human V1a receptor; Ki by Cheng-Prussoff equation
Protocol: The human V1a receptor was cloned by RT-PCR from total human liver RNA. The coding sequence was subcloned in an expression vector after sequencing to confirm the identity of the amplified sequence. […] Cell membranes were prepared from HEK293 cells transiently transfected with the expression vector and grown in 20 liter fermenters with the following protocol.
50 g of cells were resuspended in 30 ml freshly prepared ice cold Lysis buffer (50 mM HEPES, 1 mM EDTA, 10 mM MgCl2 adjusted to pH=7.4+complete cocktail of protease inhibitor (Roche Diagnostics)). The mixture was homogenized with Polytron for 1 min and sonicated on ice for 2×2 minutes at 80% intensity (Vibracell sonicator). The preparation was centrifuged 20 min at 500 g at 4° C., the pellet was discarded and the supernatant centrifuged 1 hour at 43'000 g at 4° C. (19'000 rpm). The pellet was resuspended in 12.5 ml Lysis buffer+12.5 ml Sucrose 20% and homogenized using a Polytron for 1-2 min. The protein concentration was determined by the Bradford method and aliquots were stored at −80° C. until use. For binding studies 60 mg Yttrium silicate SPA beads (Amersham) were mixed with an aliquot of membrane in binding buffer (50 mM Tris, 120 mM NaCl, 5 mM KCl, 2 mM CaCl2, 10 mM MgCl2) for 15 minutes with mixing. 50 ul of bead/membrane mixture was then added to each well of a 96 well plate, followed by 50 ul of 4 nM 3H-Vasopressin (American Radiolabeled Chemicals). For total binding measurement, 100 ul of binding buffer were added to the respective wells; for non-specific binding, 100 ul of 8.4 mM cold vasopressin were added; and for compound testing, 100 ul of a serial dilution of each compound in 2% DMSO was added. The plate was incubated 1 h at room temperature, centrifuged 1 min at 1000 g and counted on a Packard Top-Count. Non-specific binding counts were subtracted from each well and data was normalized to the maximum specific binding set at 100%. To calculate an IC 50 the curve was fitted using a non-linear regression model (XLfit) and the Ki was calculated using the Cheng-Prussoff equation.

T1 sequence (P37288 whole entry): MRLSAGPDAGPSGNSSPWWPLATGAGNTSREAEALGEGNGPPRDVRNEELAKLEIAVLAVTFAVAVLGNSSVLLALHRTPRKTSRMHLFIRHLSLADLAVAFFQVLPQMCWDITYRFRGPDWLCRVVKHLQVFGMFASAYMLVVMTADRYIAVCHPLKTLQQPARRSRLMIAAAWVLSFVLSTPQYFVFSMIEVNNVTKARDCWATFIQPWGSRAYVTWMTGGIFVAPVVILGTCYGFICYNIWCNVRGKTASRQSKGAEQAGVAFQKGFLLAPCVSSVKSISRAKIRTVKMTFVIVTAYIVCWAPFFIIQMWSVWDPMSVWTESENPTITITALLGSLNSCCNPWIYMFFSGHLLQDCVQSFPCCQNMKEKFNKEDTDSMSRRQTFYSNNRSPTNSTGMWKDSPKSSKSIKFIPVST

Ki [nM] | SMILES
17.8 | O=C(c1cc2cc(F)ccc2[nH]1)N1CCC2(CC1)OCc1ccccc12 [Example 6, 1′-[(5-fluoro-1H-indol-2-yl)carbonyl]-3H-spiro[2-benzofuran-1,4′-piperidine]]
17.4 | CN(C)C(=O)Cn1c(C(=O)N2CCC3(CC2)OC(=O)c2ccccc23)cc2cc(Cl)ccc21 [Example 4, 2-{5-chloro-2-[(3-oxo-1′H,3H-spiro[2-benzofuran-1,4′-piperidin]-1′-yl)carbonyl]-1H-indol-1-yl}-N,N-dimethylacetamide]
5.5 | O=C(c1cc2cc(Cl)ccc2[nH]1)N1CCC2(CC1)OCc1ccccc12 [Example 9, 1′-[(5-chloro-1H-indol-2-yl)carbonyl]-3H-spiro[2-benzofuran-1,4′-piperidine]]
3.63 | CN(C)Cc1cc(Cl)cc2cc(C(=O)N3CCC4(CC3)OCc3ccccc34)[nH]c12 [Example 15, 1-[5-chloro-2-(1′H,3H-spiro[2-benzofuran-1,4′-piperidin]-1′-ylcarbonyl)-1H-indol-7-yl]-N,N-dimethylmethanamine]
9.77 | Cc1ccc2c(C)c(C(=O)N3CCC4(CC3)COc3ccccc34)[nH]c2c1C [Example 24, 1′-[(3,6,7-trimethyl-1H-indol-2-yl)carbonyl]spiro[1-benzofuran-3,4′-piperidine]]
30.2 | COc1c(C(=O)N2CCC3(CC2)OCc2ccccc23)[nH]c2cccc(Br)c12 [Example 8, 1′-[(4-bromo-3-methoxy-1H-indol-2-yl)carbonyl]-3H-spiro[2-benzofuran-1,4′-piperidine]]
32.4 | O=C1OC2(CCN(C(=O)c3cc4cc(Cl)ccc4[nH]3)CC2)c2ccccc21 [Example 2, 1′-[(5-chloro-1H-indol-2-yl)carbonyl]-3H-spiro[2-benzofuran-1,4′-piperidin]-3-one]
41.7 | O=C1OC2(CCN(C(=O)c3cc4cc(Cl)ccc4[nH]3)CC2)c2ccc(F)cc21 [Example 1, 1′-[(5-chloro-1H-indol-2-yl)carbonyl]-5-fluoro-3H-spiro[2-benzofuran-1,4′-piperidin]-3-one]
3.8 | O=C(c1cc2cc(Cl)cc(CN3CCOCC3)c2[nH]1)N1CCC2(CC1)OCc1ccccc12 [Example 11, 1′-{[5-chloro-7-(morpholin-4-ylmethyl)-1H-indol-2-yl]carbonyl}-3H-spiro[2-benzofuran-1,4′-piperidine]]
7.24 | Cc1c(C(=O)N2CCC3(CC2)COc2ccccc23)[nH]c2c(C)cccc12 [Example 26, 1′-[(3,7-dimethyl-1H-indol-2-yl)carbonyl]spiro[1-benzofuran-3,4′-piperidine]]
21.4 | CN1CCN(Cc2cc(Cl)cc3cc(C(=O)N4CCC5(CC4)OCc4ccccc45)[nH]c23)CC1 [Example 12, 1′-({5-chloro-7-[(4-methylpiperazin-1-yl)methyl]-1H-indol-2-yl}carbonyl)-3H-spiro[2-benzofuran-1,4′-piperidine]]
21.4 | N#CCn1c(C(=O)N2CCC3(CC2)C(=O)Nc2ccc(Br)cc23)cc2cc(Cl)ccc21 [Example 46, {2-[(5-Bromo-2-oxo-1,2-dihydro-1′H-spiro[indole-3,4′-piperidin]-1′-yl)carbonyl]-5-chloro-1H-indol-1-yl}acetonitrile]
7.76 | CN(C)CCNC(=O)Cc1cc(Cl)cc2cc(C(=O)N3CCC4(CC3)OCc3ccccc34)[nH]c12 [Example 13, 2-[5-chloro-2-(1′H,3H-spiro[2-benzofuran-1,4′-piperidin]-1′-ylcarbonyl)-1H-indol-7-yl]-N-[2-(dimethylamino)ethyl]acetamide]
2.09 | N#CCc1cc(Cl)cc2cc(C(=O)N3CCC4(CC3)OCc3ccccc34)[nH]c12 [Example 10, [5-chloro-2-(1′H,3H-spiro[2-benzofuran-1,4′-piperidin]-1′-ylcarbonyl)-1H-indol-7-yl]acetonitrile]
6.61 | N#CCc1cc(Cl)cc2cc(C(=O)N3CCC4(CC3)OC(=O)c3ccccc34)[nH]c12 [Example 5, {5-chloro-2-[(3-oxo-1′H,3H-spiro[2-benzofuran-1,4′-piperidin]-1′-yl)carbonyl]-1H-indol-7-yl}acetonitrile]

SMILES | Ki [nM]
CN1CCN(C(=O)Cc2cc(Cl)cc3cc(C(=O)N4CCC5(CC4)OCc4ccccc45)[nH]c23)CC1 [Example 14, 1′-({5-chloro-7-[2-(4-methylpiperazin-1-yl)-2-oxoethyl]-1H-indol-2-yl}carbonyl)-3H-spiro[2-benzofuran-1,4′-piperidine]] | 2.75
